{"source": "patent US7285703B2", "about": "“Plant like starches and the method of making them in hosts” (BASF Plant Science GmbH, priority 1998, dated 2007)", "key": {"[1]": {"molecular_target": "T1, maize starch synthase SSI-1 (STSI-1), full length SSI (583 amino acids), N-terminus CVAELSREGP (SEQ ID NO:64) (Zea mays, UniProt O49064)", "T1 sequence (O49064 with tags, fused parts or gaps)": "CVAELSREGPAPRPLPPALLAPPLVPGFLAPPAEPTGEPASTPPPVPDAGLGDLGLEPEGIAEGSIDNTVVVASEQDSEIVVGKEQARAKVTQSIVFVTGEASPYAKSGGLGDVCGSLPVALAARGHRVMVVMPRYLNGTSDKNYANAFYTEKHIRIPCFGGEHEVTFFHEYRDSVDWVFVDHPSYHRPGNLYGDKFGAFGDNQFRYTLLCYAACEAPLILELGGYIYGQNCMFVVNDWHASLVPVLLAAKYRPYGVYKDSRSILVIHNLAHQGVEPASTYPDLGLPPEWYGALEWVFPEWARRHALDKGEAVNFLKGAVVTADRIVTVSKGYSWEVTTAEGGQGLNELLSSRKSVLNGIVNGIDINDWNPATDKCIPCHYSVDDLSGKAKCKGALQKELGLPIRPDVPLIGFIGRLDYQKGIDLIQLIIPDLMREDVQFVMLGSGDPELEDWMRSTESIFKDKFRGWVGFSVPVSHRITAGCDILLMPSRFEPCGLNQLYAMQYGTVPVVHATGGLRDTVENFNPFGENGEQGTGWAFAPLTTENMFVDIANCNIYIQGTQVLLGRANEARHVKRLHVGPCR", "assay": "ADPGlc kinetics of starch synthase SSI-1", "type": "biochemical", "conditions": "5 mg/ml amylopectin as primer, 37° C.", "from_the_text": "(§1) FIG. 58. SSI-1, SSI-2, and SSI-3 construct design. Three forms of SSI were constructed in the pET expression (see Methods). pExs10a encodes SSI-1, the full length maize SSI (583 amino acids) which has the N-terminal sequence CVAELSREGP (SEQ ID NO:64). pExs8 encodes a truncated SSI, SSI-2, with amino acids # 8-52 deleted from the N-terminus of SSI-1 and which has the N-terminal sequence CVAELSR/DLG (SEQ ID NO:65). pExs1d encodes the most truncated form of SSI, SSI-3, with the first 93 amino acids deleted from SSI-1 and which has the N-terminal sequence SIVFVTGE (SEQ ID NO:66). A depiction of the waxygene, encoding GBSS, which has the N-terminal sequence ASAGMNW (SEQ ID NO:67), is also included for comparison. The amino acid motif KS/TGGL (SEQ ID NO:9), the putative binding site for ADGPGlc, in indicated by the triangles. The KS/TGGL (SEQ ID NO:9) motif is located 18 amino acids from the N-terminus in GBSS, while the motif is 106 amino acids from the N-terminus in maize SSI. Drawing not to scale.\n(§2) 5 mL of supernatant were used to assay STS and SBE activities as previously described (Preiss) with minor modification. […] The unincorporated [^14C]-ADPGlc was separated with Dowex anion exchange column (200-400 mesh, Sigma Chemical Co.). […] SBE activity was determined by phosphorylase stimulation assay. One unit of activity is defined as 1 mmol Glc incorporated into the a-glucan per min at. […]"}, "[2]": {"molecular_target": "T2, maize starch synthase SSI-3 (STSI-3), N-terminally truncated SSI, first 93 amino acids of SSI-1 deleted, N-terminus SIVFVTGE (SEQ ID NO:66) (Zea mays, UniProt O49064)", "T2 sequence (O49064 with tags, fused parts or gaps)": "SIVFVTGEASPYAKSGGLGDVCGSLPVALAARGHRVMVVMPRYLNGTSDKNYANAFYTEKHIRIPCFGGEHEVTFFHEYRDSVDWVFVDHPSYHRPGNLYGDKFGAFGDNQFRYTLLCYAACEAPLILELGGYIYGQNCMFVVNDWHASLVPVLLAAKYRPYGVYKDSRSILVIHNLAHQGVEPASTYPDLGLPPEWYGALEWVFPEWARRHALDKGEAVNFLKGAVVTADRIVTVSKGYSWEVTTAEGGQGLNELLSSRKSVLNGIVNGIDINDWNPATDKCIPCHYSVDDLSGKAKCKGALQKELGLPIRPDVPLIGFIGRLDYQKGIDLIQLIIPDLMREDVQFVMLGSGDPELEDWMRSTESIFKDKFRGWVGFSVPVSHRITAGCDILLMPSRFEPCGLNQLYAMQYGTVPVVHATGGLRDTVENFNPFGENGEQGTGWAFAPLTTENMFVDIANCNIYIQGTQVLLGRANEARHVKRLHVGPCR", "assay": "ADPGlc kinetics of starch synthase SSI-3", "type": "biochemical", "conditions": "5 mg/ml amylopectin as primer, 37° C.", "from_the_text": "as §1, §2"}}, "data": [{"smiles": "Nc1ncnc2c1ncn2[C@@H]1O[C@H](COP(=O)(O)OP(=O)(O)O[C@H]2O[C@H](CO)[C@@H](O)[C@H](O)[C@H]2O)[C@@H](O)[C@H]1O", "note": "[ADPGlc, adenosine diphosphate glucose]", "values": [{"measurement": "Vm (ADPGlc kinetics)", "setting": "[1]; +citrate", "value": "18.0 ± 0.5", "unit": "μmol/min/mg protein"}, {"measurement": "Vm (ADPGlc kinetics)", "setting": "[1]; −citrate", "value": "6.38 ± 0.88", "unit": "μmol/min/mg protein"}, {"measurement": "Vm (ADPGlc kinetics)", "setting": "[2]; +citrate", "value": "26.4 ± 1.4", "unit": "μmol/min/mg protein"}, {"measurement": "Vm (ADPGlc kinetics)", "setting": "[2]; −citrate", "value": "14.7 ± 1.3", "unit": "μmol/min/mg protein"}]}]}
